Data from ChEMBL document CHEMBL1614632, “Trend analysis of a database of intravenous pharmacokinetic parameters in humans for 670 drug compounds” (Drug Metab Dispos, 2008).

Key:
clinical [1] = settings: human, in vivo, iv, Vdss
clinical [2] = settings: human, in vivo, iv, CL
clinical [3] = settings: human, in vivo, iv
clinical [4] = settings: human, in vivo, iv; remark: listed apart in the source
clinical [5] = settings: human, in vivo, iv, t1/2

Row | SMILES | Vd (clinical [1]) | clearance (clinical [2]) | fraction unbound (clinical [3]) | MRT (clinical [4]) | half-life (clinical [5])
1 | COc1ccc(C[C@@H]2c3cc(OC)c(OC)cc3CC[N@+]2(C)CCC(=O)OCCCCCOC(=O)CC[N@@+]2(C)CCc3cc(OC)c(OC)cc3[C@H]2Cc2ccc(OC)c(OC)c2)cc1OC | 0.14 L/kg | 5.4 mL/min/kg | 0.62 | 0.43 h | 0.42 h
2 | CN[C@@H]1C[C@H]2O[C@@](C)([C@@H]1OC)n1c3ccccc3c3c4c(c5c6ccccc6n2c5c31)C(=O)N[C@@H]4O | 0.15 L/kg | 0.0037 mL/min/kg | 0.0022 | 680 h | 790 h
3 | C[C@@H](O)[C@H]1C(=O)N2C(C(=O)O)=C(S[C@@H]3CN[C@H](C(=O)Nc4cccc(C(=O)O)c4)C3)[C@H](C)[C@H]12 | 0.12 L/kg | 0.45 mL/min/kg | 0.1 | 4.4 h | 3.8 h
4 | COc1ccc(CC2c3cc(OC)c(OC)cc3CC[N+]2(C)CCC(=O)OCCCCCOC(=O)CC[N+]2(C)CCc3cc(OC)c(OC)cc3C2Cc2ccc(OC)c(OC)c2)cc1OC (stereo unspecified) | 0.1 L/kg | 5.7 mL/min/kg | 0.52 | 0.29 h | 0.31 h
5 | C#C[C@]1(O)CC[C@H]2[C@@H]3CCc4cc(OS(=O)(=O)O)ccc4[C@H]3CC[C@@]21C | 2.3 L/kg | 4.7 mL/min/kg | 0.011 | 8.2 h | 8.4 h
6 | COc1cc2c3cc1Oc1cc(ccc1O)C[C@@H]1c4c(cc(OC)c(O)c4Oc4ccc(cc4)C[C@@H]3N(C)CC2)CC[N+]1(C)C.[Cl-] | 0.45 L/kg | 3.4 mL/min/kg | 0.58 | 2.2 h | 2 h
7 | CO/N=C(\C(=O)N[C@@H]1C(=O)N2C(C(=O)O)=C(C)CS[C@H]12)c1csc(N)n1 | 0.28 L/kg | 1.9 mL/min/kg | 0.78 | 2.5 h | 2.1 h
8 | CN(C)C(=O)CCS[C@H](SCCC(=O)O)c1cccc(/C=C/c2ccc3ccc(Cl)cc3n2)c1 | 0.11 L/kg | 0.68 mL/min/kg | 0.0004 | 2.7 h | 2.3 h
9 | C=C[C@@]1(O)C[N+]2(C)CC[C@H]1C[C@@H]2[C@@H](O)c1ccnc2ccc(OC)cc12 | 6.8 L/kg | 12 mL/min/kg | 0.47 | 9.4 h | 6.7 h
10 | CCCCCCCCCC(=O)N[C@@H](Cc1c[nH]c2ccccc12)C(=O)N[C@H](CC(N)=O)C(=O)N[C@@H](CC(=O)O)C(=O)N[C@@H]1C(=O)NCC(=O)N[C@@H](CCCN)C(=O)N[C@@H](CC(=O)O)C(=O)N[C@H](C)C(=O)N[C@@H](CC(=O)O)C(=O)NCC(=O)N[C@H](CO)C(=O)N[C@@H]([C@H](C)CC(=O)O)C(=O)N[C@@H](CC(=O)c2ccccc2N)C(=O)O[C@@H]1C | 0.088 L/kg | 0.16 mL/min/kg | 0.083 | 9.2 h | 8.1 h
11 | Nc1nc(N)c2nc(-c3ccccc3)c(N)nc2n1 | 13 L/kg | 63 mL/min/kg | 0.42 | 3.4 h | 4.3 h
12 | C=C1CC[C@@]2(O)[C@H]3Cc4ccc(O)c5c4[C@@]2(CCN3CC2CC2)[C@H]1O5 | 8.2 L/kg | 15 mL/min/kg | 0.65 | 9.1 h | 8.8 h
13 | CN(C)CCCN1c2ccccc2CCc2cc(O)ccc21 [2-HYDROXYIMIPRAMINE] | 6.6 L/kg | 9.2 mL/min/kg | 0.36 | 12 h | 10 h
14 | CC[C@@]1(O)C(=O)OCc2c1cc1n(c2=O)Cc2cc3c(N)cccc3nc2-1 [9-AMINOCAMPTOTHECIN] | 2.2 L/kg | 6.5 mL/min/kg | 0.003 | 5.6 h | 7 h
15 | Nc1nc(NC2CC2)c2ncn([C@H]3C=C[C@@H](CO)C3)c2n1 [ABACAVIR] | 0.84 L/kg | 13 mL/min/kg | 0.5 | 1.1 h | 1 h
16 | CCN(CC)CCNC(=O)c1ccc(NC(C)=O)cc1 [ACECAINIDE] | 1.9 L/kg | 4 mL/min/kg | 0.9 | 7.9 h | 6.4 h
17 | CC(=O)Nc1nnc(S(N)(=O)=O)s1 [ACETAZOLAMIDE] | 0.37 L/kg | 0.65 mL/min/kg | 0.04 | 9.5 h | 13 h
18 | CC(=O)N[C@@H](CS)C(=O)O [ACETYLCYSTEINE] | 0.55 L/kg | 3.1 mL/min/kg | 0.17 | 3 h | 5.5 h
19 | CN(C)CCc1c[nH]c2ccc(CS(=O)(=O)N3CCCC3)cc12 [ALMOTRIPTAN] | 2.2 L/kg | 8.9 mL/min/kg | 0.6 | 4.2 h | 3.4 h
20 | CN1CC[C@H](c2c(O)cc(O)c3c(=O)cc(-c4ccccc4Cl)oc23)[C@H](O)C1 [ALVOCIDIB] | 1.5 L/kg | 6.1 mL/min/kg | 0.06 | 4 h | 5.2 h
21 | NCC[C@H](O)C(=O)N[C@@H]1C[C@H](N)[C@@H](O[C@H]2O[C@H](CN)[C@@H](O)[C@H](O)[C@H]2O)[C@H](O)[C@H]1O[C@H]1O[C@H](CO)[C@@H](O)[C@H](N)[C@H]1O [AMIKACIN] | 0.16 L/kg | 1.1 mL/min/kg | 0.88 | 2.4 h | 2.4 h
22 | NCCCCCC(=O)O [AMINOCAPROIC ACID] | 0.39 L/kg | 2.5 mL/min/kg | 0.92 | 2.6 h | 4.9 h
23 | COc1cc(NS(C)(=O)=O)ccc1Nc1c2ccccc2nc2ccccc12 [AMSACRINE] | 1.6 L/kg | 4.3 mL/min/kg | 0.029 | 6.2 h | 4.7 h
24 | CCCC1C(=O)N2C(N(C)C)=Nc3ccc(C)cc3N2C1=O (stereo unspecified) [APAZONE] | 0.12 L/kg | 0.14 mL/min/kg | 0.004 | 14 h | 17 h
25 | O=C1CCc2ccc(OCCCCN3CCN(c4cccc(Cl)c4Cl)CC3)cc2N1 [ARIPIPRAZOLE] | 4.9 L/kg | 0.83 mL/min/kg | 0.01 | 98 h | 75 h
26 | CC(=O)Oc1ccccc1C(=O)O [ASPIRIN] | 0.22 L/kg | 12 mL/min/kg | 0.68 | 0.3 h | 0.26 h
27 | CC#CCC(C)[C@H](O)/C=C/[C@@H]1[C@H]2C/C(=C/CCCC(=O)O)C[C@H]2C[C@H]1O (stereo partly specified) [ILOPROST] | 0.37 L/kg | 16 mL/min/kg | 0.4 |  | 0.57 h
28 | CC[C@H](OC(C)=O)C(C[C@H](C)N(C)C)(c1ccccc1)c1ccccc1 [LEVOMETHADYL ACETATE] | 8.3 L/kg | 5.4 mL/min/kg | 0.2 | 26 h | 
29 | COc1ccccc1Oc1c(NS(=O)(=O)c2ccc(C(C)C)cn2)nc(-c2ccnc(-c3nnn[nH]3)c2)nc1OCCO [TEZOSENTAN] | 0.28 L/kg | 8.1 mL/min/kg | 0.0085 |  | 3.8 h
30 | Nc1n[n+]([O-])c2ccccc2[n+]1[O-] [TIRAPAZAMINE] | 0.56 L/kg | 8.9 mL/min/kg | 0.81 | 1 h | 
